Data taken from patent US20260014175A1, “PHARMACEUTICAL COMPOSITION FOR ORAL ADMINISTRATION OF CANNABINOIDS” (EM[…]., priority 2022, published 2026).

Assay: Compatibility of CBD / CBD-containing SNEDDS with excipients (CBD release in SGF, SIF, FaSSIF)
Assay type: physicochemical
Experimental: A number of different compositions were prepared and tested in order to determine the compatibility of CBD and/or CBD-containing self-nanoemulsifying drug delivery systems (SNEDDS) with various excipients.

SMILES | compatibility with CBD/CBD-containing SNEDDS
O=C([O-])CN(CCN(CC(=O)[O-])CC(=O)O)CC(=O)O.[Na+].[Na+] [EDTA sodium] | no signs of incompatibility
NCC(=O)O [Glycine] | no signs of incompatibility
CCCCCCCCCCCCOS(=O)(=O)[O-].[Na+] [Sodium lauryl sulfate (SLS), Sodium lauryl sulfate] | no signs of incompatibility
